The record followed here is US12053459B2, “CDK2 inhibitors and methods of using the same” (Cedilla Therapeutics, Inc., priority 2021, dated 2024).

In one experiment the test system is Kuramochi cells. Briefly: BrdU cell proliferation assay (colorimetric ELISA), Kuramochi cells. The settings on record: class symbols A-D. It counts as cell-based. As to the method:
A BrdU assay was used as a measure of proliferation based on the DNA replication process of proliferating cells. BrdU, a pyrimidine analog, is added to the cell culture and incorporated into the DNA of proliferating cells. The presence of the BrdU analog was then measured through a colorimetric ELISA. After fixation and permeabilization of cells, peroxidase-conjugated antibody recognizing BrdU is added and allowed to incubate, followed by thorough washing to remove unbound antibody. In order to quantify the amount of bound antibody, peroxidase substrate is added and produces a color that can be measured at 450 nm.
On day −1, Kuramochi cells (Sekisui XenoTech JCRB0098) were seeded at 2,000 cells/well in columns 2-12 of a 96 well plate (Corning, CLS3596) in 150 uL media and allowed to adhere overnight at 37 degree with 5% CO2. In order to assess specificity of the compounds, Kuramochi RB^KO cells were also plated and treated, as RB^KO cells were not expected to show a proliferative response to CCNE/CDK specific inhibitors.
On day 0, the source plate was prepared by adding 10 mM compounds and performing 3-fold serial dilutions for a 4-point dose response of each compound. Using a multichannel pipette, 2 uL of the contents of the source plate were stamped into an intermediate plate with 500 uL of RPMI 1640 Media, GlutaMAX Supplement (Life Technologies, 61870127) in each well of a Nunc 96 DeepWell™ plate, non-treated 96 DeepWell plate, 2 mL/well, sterile, natural, 60/cs (Sigma Z717274) and mixed thoroughly. 50 uL from row A of this intermediate plate were added to rows A-H of one plate of previously seeded Kuramochi cells, and each subsequent row of the intermediate plate was added to a full plate of cells.
On day 4, the plates were developed using the BrdU ELISA Cell Proliferation Assay according to manufacturer's instructions (Roche, 11647229001). Briefly, BrdU was diluted 1:100 in Gibco®, Opti-MEM® and 20 μL/well was added, shaken for 10 minutes at 350 rpm, and then returned to the incubator for 1 hour. Following incubation, the medium was discarded, and the cells were fixed by adding 200 μL of Fix/Denature solution. The anti-BrdU peroxidase antibody was diluted 1:1000 in OptiMEM, added at 100 μL/well, and incubated while shaking (350 rpm) for one hour. Three washes with PBS were performed to remove any unbound antibody, followed by the addition of 100 μL of substrate solution to each well. […] was then added to halt the reaction, and plates were read out using an Envision spectrophotometer (Perkin Elmer) set to read 450 nm absorbance. Background absorbance values from empty wells were subtracted from all samples and then normalized to DMSO treated wells.
(In general: In an ELISA, binding on a coated surface is turned into a signal by an enzyme label.)

For another experiment, the target named is CDK2/Cyclin E1(14-475) (Homo sapiens, UniProt P24941). Kind of experiment: Caliper LabChip EZ Reader mobility shift assay, inhibition of CDK2/Cyclin E1 activity. It counts as biochemical. Particulars: class symbols A-D. As to the method: Inhibition of CDK2/Cyclin E1 activity in the presence of compounds of the present disclosure was evaluated using a Caliper LabChip® EZ Reader mobility shift assay. In the assay, activated CDK2/Cyclin E1 catalyzes the phosphorylation of a fluorescently tagged peptide 5-FAM-QSPKKG-CONH2 (PerkinElmer, FL Peptide 18) which induces a difference in capillary electrophoresis mobility. The peptide substrate and product were measured, and the conversion ratio was used to determine the inhibition (as % activity and IC50 values) of CDK2/Cyclin E1. Reactions contained 50 mM HEPES pH 7.5, 10 mM MgCl2, 1 mM EDTA, 2 mM DTT, 0.01% Brij35, 0.5 mg/mL BSA, 0.1% DMSO, 2.5 nM CDK2/Cyclin E1(14-475), 100 μM ATP, and 1.5 μM fluorescent peptide substrate.
Dose titrations of inhibitors in 100% DMSO were combined with 3.25 nM CDK2/Cyclin E1(14-475) and 130 μM of ATP in reaction buffer. The mixtures were incubated for 30 minutes before the addition of fluorescent peptide substrate to initiate the kinase reaction. The final conditions were 2.5 nM CDK2/Cyclin E1(14-475), 100 μM ATP, and 1.5 μM fluorescent peptide. The reactions were stopped after 100 minutes with the addition of EDTA (6 mM final EDTA concentration). The stopped reactions were analyzed on a Caliper LabChip® EZ Reader II. The conversion ratios were normalized to yield % activity, plotted against compound concentration, and fit to a four-parameter equation to determine the IC50 for each compound.

pIC50: −log10 of the molar value. Bounds are passed on as bounds.

Broadly, the pIC50 is the negative decadic logarithm of the IC50, by convention in mol/L. Consider `CNC(=O)[C@H](CCCc1ccccc1)NC(=O)C1CN(C(=O)c2coc(Cl)n2)CC2CN(C(=O)c3ccc(OC(C)C)c(OC)c3)CC21` (single isomer, unassigned) [I-233], for which the pIC50 with Kuramochi cells and on CDK2/Cyclin E1(14-475) was under 5.00 in each case.

`COc1cc(C(=O)N2CC3CN(C(=O)Cc4c[nH]c5cc(Cl)ccc45)CC(C(=O)N[C@@H](CCCc4cccc(O)c4)C(=O)NCCCCCN)C3C2)ccc1OC(C)C` (single isomer, unassigned) [I-257]: the pIC50 was under 5.00 in the experiment on Kuramochi cells and 5.30 to 6.30 on CDK2/Cyclin E1(14-475).

`COc1cc(C(=O)N2CC3CN(C(=O)Cc4c[nH]c5cc(Cl)ccc45)CC(C(=O)N[C@@H](CCCc4cccc(O)c4)C(=O)NCCCCCN)C3C2)ccc1OC(C)C` (single isomer, unassigned) [I-258]: the pIC50 in the experiment on Kuramochi cells and at CDK2/Cyclin E1(14-475) was under 5.00 in each case.

`COc1cc(C(=O)N2CC3CN(C(=O)Cc4c[nH]c5cc(Cl)ccc45)CC(C(=O)N[C@H](C(=O)NCCCCCNC(=O)OC(C)(C)C)C(C)OCc4ccccc4)C3C2)ccc1OC(C)C` (single isomer, unassigned) [I-259]: the pIC50 with Kuramochi cells was 5.30 to 6.30; on CDK2/Cyclin E1(14-475), at least 6.30.

Regarding `COc1cc(C(=O)N2CC3CN(C(=O)Cc4c[nH]c5cc(Cl)ccc45)CC(C(=O)N[C@H](C(=O)NCCCCCNC(=O)OC(C)(C)C)C(C)OCc4ccccc4)C3C2)ccc1OC(C)C` (single isomer, unassigned) [I-260], the pIC50 was under 5.00 in the experiment on Kuramochi cells and 5.30 to 6.30 on CDK2/Cyclin E1(14-475).

Regarding `CNC(=O)[C@H](CCCc1ccccc1)NC(=O)C1CN(C(=O)Cc2c[nH]c3cc(Cl)ccc23)CC2CN(C(=O)c3ccc4oc(C)cc4c3)CC21` (stereo partly drawn) [I-3], the pIC50 in the experiment on Kuramochi cells and on CDK2/Cyclin E1(14-475) was under 5.00 throughout.

On to `CNC(=O)[C@H](CCCc1ccccc1)NC(=O)C1CN(C(=O)Cc2c[nH]c3cc(Cl)ccc23)CC2CN(C(=O)c3ccc(OC)cc3)CC21` (stereo partly drawn) [I-5], for which the pIC50 with Kuramochi cells and on CDK2/Cyclin E1(14-475) was under 5.00 throughout.

Turning to `CNC(=O)[C@H](CCCc1ccccc1)NC(=O)C1CN(C(=O)Cc2c[nH]c3cc(Cl)ccc23)CC2CN(C(=O)c3ccc(OC4CC4)cc3)CC21` (stereo partly drawn) [I-6], the pIC50 in the experiment on Kuramochi cells is under 5.00; on CDK2/Cyclin E1(14-475), 5.30 to 6.30.

Regarding `CNC(=O)[C@H](CCCc1ccccc1)NC(=O)C1CN(C(=O)Cc2c[nH]c3cc(Cl)ccc23)CC2CN(C(=O)c3ccc(OCC(C)C)cc3)CC21` (stereo partly drawn) [I-7], the results for the pIC50 in the experiment on Kuramochi cells and at CDK2/Cyclin E1(14-475) were 5.00 to 5.30 and 5.30 to 6.30, respectively.

Consider `CNC(=O)[C@H](CCCc1ccccc1)NC(=O)C1CN(C(=O)Cc2c[nH]c3cc(Cl)ccc23)CC2CN(C(=O)c3ccc4[nH]ncc4c3)CC21` (stereo partly drawn) [I-8], for which the pIC50 in the experiment with Kuramochi cells and at CDK2/Cyclin E1(14-475) was under 5.00 in each case.

On to `CNC(=O)[C@H](CCCc1ccccc1)NC(=O)C1CN(C(=O)Cc2c[nH]c3cc(Cl)ccc23)CC2CN(C(=O)c3ccc(OCCC4CC4)c(OC)c3)CC21` (stereo partly drawn) [I-9], for which the pIC50 in the experiment with Kuramochi cells is under 5.00; on CDK2/Cyclin E1(14-475), 5.00 to 5.30.

Regarding `CNC(=O)[C@H](CCCc1ccccc1)NC(=O)C1CN(C(=O)Cc2c[nH]c3cc(Cl)ccc23)CC2CN(C(=O)c3cnc4ccccc4c3)CC21` (stereo partly drawn) [I-10], the pIC50 with Kuramochi cells and at CDK2/Cyclin E1(14-475) was under 5.00 each time.

Take `CNC(=O)[C@H](CCCc1ccccc1)NC(=O)C1CN(C(=O)Cc2c[nH]c3cc(Cl)ccc23)CC2CN(C(=O)c3cccc(-c4ccccc4)c3)CC21` (stereo partly drawn) [I-11]: the pIC50 in the experiment with Kuramochi cells and on CDK2/Cyclin E1(14-475) was under 5.00 each time.

For the molecule `CNC(=O)[C@H](CCCc1ccccc1)NC(=O)C1CN(C(=O)Cc2c[nH]c3cc(Cl)ccc23)CC2CN(C(=O)c3nc4ccccc4[nH]3)CC21` (stereo partly drawn) [I-12], the pIC50 in the experiment on Kuramochi cells and on CDK2/Cyclin E1(14-475) was under 5.00 in each case.

As to `CNC(=O)[C@H](CCCc1ccccc1)NC(=O)C1CN(C(=O)Cc2c[nH]c3cc(Cl)ccc23)CC2CN(C(=O)c3ccc(-c4ccncc4)cc3)CC21` (stereo partly drawn) [I-14], the pIC50 with Kuramochi cells and on CDK2/Cyclin E1(14-475) was under 5.00 in each case.

On to `CNC(=O)[C@H](CCCc1ccccc1)NC(=O)C1CN(C(=O)Cc2c[nH]c3cc(Cl)ccc23)CC2CN(C(=O)c3ccc(C#N)cn3)CC21` (stereo partly drawn) [I-15], for which the pIC50 in the experiment on Kuramochi cells and on CDK2/Cyclin E1(14-475) was under 5.00 throughout.

In the case of `CNC(=O)[C@H](CCCc1ccccc1)NC(=O)C1CN(C(=O)Cc2c[nH]c3cc(Cl)ccc23)CC2CN(C(=O)c3cnc(OC)cn3)CC21` (stereo partly drawn) [I-16], the negative logarithm of the IC50 (pIC50) with Kuramochi cells and at CDK2/Cyclin E1(14-475) was under 5.00 each time.

Consider `CNC(=O)[C@H](CCCc1ccccc1)NC(=O)C1CN(C(=O)Cc2c[nH]c3cc(Cl)ccc23)CC2CN(C(=O)c3ccc4cnccc4c3)CC21` (stereo partly drawn) [I-18], for which the pIC50 in the experiment on Kuramochi cells and on CDK2/Cyclin E1(14-475) was under 5.00 throughout.

As to `CNC(=O)[C@H](CCCc1ccccc1)NC(=O)C1CN(C(=O)Cc2c[nH]c3cc(Cl)ccc23)CC2CN(C(=O)c3cccc(CO)n3)CC21` (stereo partly drawn) [I-20], the pIC50 in the experiment on Kuramochi cells and on CDK2/Cyclin E1(14-475) was under 5.00 throughout.

Consider `CNC(=O)[C@H](CCCc1ccccc1)NC(=O)C1CN(C(=O)Cc2c[nH]c3cc(Cl)ccc23)CC2CN(C(=O)c3ccc(OC)nn3)CC21` (stereo partly drawn) [I-21], for which the pIC50 in the experiment on Kuramochi cells and on CDK2/Cyclin E1(14-475) was under 5.00 throughout.

For the molecule `CNC(=O)[C@H](CCCc1ccccc1)NC(=O)C1CN(C(=O)Cc2c[nH]c3cc(Cl)ccc23)CC2CN(C(=O)c3ccc(OC(C)C)c(Cl)c3)CC21` (stereo partly drawn) [I-24], the pIC50 in the experiment on Kuramochi cells and at CDK2/Cyclin E1(14-475) was under 5.00 in each case.

`CNC(=O)[C@H](CCCc1ccccc1)NC(=O)C1CN(C(=O)Cc2c[nH]c3cc(Cl)ccc23)CC2CN(C(=O)c3ccc(OC(F)(F)F)cc3)CC21` (stereo partly drawn) [I-25]: the pIC50 in the experiment on Kuramochi cells was under 5.00; on CDK2/Cyclin E1(14-475), 5.30 to 6.30.

As for `CNC(=O)[C@H](CCCc1ccccc1)NC(=O)C1CN(C(=O)Cc2c[nH]c3cc(Cl)ccc23)CC2CN(C(=O)c3cc(-c4ccccc4)nn3C)CC21` (stereo partly drawn) [I-26], the pIC50 with Kuramochi cells is under 5.00; at CDK2/Cyclin E1(14-475), 5.00 to 5.30.

As to `CNC(=O)[C@H](CCCc1ccccc1)NC(=O)C1CN(C(=O)Cc2c[nH]c3cc(Cl)ccc23)CC2CN(C(=O)c3cn(-c4ccccc4)cn3)CC21` (stereo partly drawn) [I-27], the pIC50 in the experiment with Kuramochi cells and at CDK2/Cyclin E1(14-475) was under 5.00 in each case.

In the case of `CNC(=O)[C@H](CCCc1ccccc1)NC(=O)C1CN(C(=O)Cc2c[nH]c3cc(Cl)ccc23)CC2CN(C(=O)c3n[nH]c4ccccc34)CC21` (stereo partly drawn) [I-28], the pIC50 in the experiment with Kuramochi cells and on CDK2/Cyclin E1(14-475) was under 5.00 throughout.

Take `CNC(=O)[C@H](CCCc1ccccc1)NC(=O)C1CN(C(=O)Cc2c[nH]c3cc(Cl)ccc23)CC2CN(C(=O)c3cc(C4CC4)[nH]n3)CC21` (stereo partly drawn) [I-30]: the pIC50 with Kuramochi cells and on CDK2/Cyclin E1(14-475) was under 5.00 in each case.

In the case of `CNC(=O)[C@H](CCCc1ccccc1)NC(=O)C1CN(C(=O)Cc2c[nH]c3cc(Cl)ccc23)CC2CN(C(=O)c3ccc(S(N)(=O)=O)c(OC)c3)CC21` (stereo partly drawn) [I-31], the pIC50 with Kuramochi cells and at CDK2/Cyclin E1(14-475) was under 5.00 each time.

Consider `CNC(=O)[C@H](CCCc1ccccc1)NC(=O)C1CN(C(=O)Cc2c[nH]c3cc(Cl)ccc23)CC2CN(C(=O)c3ccc(OC)c(O)c3)CC21` (stereo partly drawn) [I-34], for which the pIC50 was under 5.00 with Kuramochi cells and 5.00 to 5.30 at CDK2/Cyclin E1(14-475).

In the case of `CNC(=O)[C@H](CCCc1ccccc1)NC(=O)C1CN(C(=O)Cc2c[nH]c3cc(Cl)ccc23)CC2CN(C(=O)c3cc4ccccc4cn3)CC21` (stereo partly drawn) [I-37], the pIC50 in the experiment with Kuramochi cells and at CDK2/Cyclin E1(14-475) was under 5.00 each time.

On to `CNC(=O)[C@H](CCCc1ccccc1)NC(=O)C1CN(C(=O)Cc2c[nH]c3cc(Cl)ccc23)CC2CN(C(=O)c3cc4cc(C)ccc4[nH]3)CC21` (stereo partly drawn) [I-38], for which the pIC50 with Kuramochi cells and on CDK2/Cyclin E1(14-475) was under 5.00 each time.
